Assay results reported in US20130065964A1, “PERITONEAL DIALYSIS SOLUTION” (UNIVERSIDAD DE CASTILLA LA MANCHA, priority 2010, published 2013).

What was measured:
[1] = test system: p38 MAPK; test: Phosphorylation of p38 MAPK by Western blot; format: cell-based; conditions: rat PMCs, D-glucose 50 mM, FIG. 8
Source text: Densitometric analysis of the phosphor-p38 levels normalized with respect to the controls (C). The data is expressed as mean±SEM, n=3. * p<0.05 compared to untreated cells (control). # p<0.05, compared to cells treated with D-glucose in the presence of carrier (0).
Rat peritoneal mesothelial cells were isolated by enzymatic digestion in accordance with protocols described in Hjelle J T, Golinska B T, Waters D C, et al. Perit Dial Int 1989; 9: 341-7. Briefly, female rats weighing 200-400 g of the Spragle-Dawley strain were sacrificed pursuant to Royal Decree 1201/2005, of 10 Oct., on protection of animals used for experimental and other scientific purposes. The abdominal cavity was quickly opened and the abdominal wall (peritoneum and smooth muscle) extracted under sterile conditions. […]
In order to obtain the total protein of the cell cultures, the culture medium was collected and replaced with PBS. […] The protein content of the cell lysates was determined using the Bradford method, following the standard protocol (Vorobiov M, Malki M, Shnaider A, et al. Perit Dial Int 2008; 28: 648-54). A quantity of 20 μg of protein/well of each sample was loaded onto 10% polyacrylamide gels. […] Band intensity was quantified by grey levels using an appropriate image analysis system (Quantity One).

[2] = test system: Collagen III; test: Real-time RT-PCR in cultured PMCs exposed to PDF; format: cell-based; conditions: rat PMCs, 1.5% PDF diluted 1:1 in culture medium, 24 hours, aliskiren 10-100 μM, FIG. 10
Protocol: After incubating the rat PMCs in 1.5% PDF diluted 1:1 in culture medium for 24 hours, in the presence or absence of aliskiren (10-100 μM), total RNA was isolated and real-time RT-PCR was carried out as described in Material and Methods. The data is expressed as mean±SEM, n=3. * p<0.05 compared to untreated cells (control). # p<0.05, compared to cells treated with 1.5% PDF in the presence of carrier (0).
Rat peritoneal mesothelial cells were isolated by enzymatic digestion in accordance with protocols described in Hjelle J T, Golinska B T, Waters D C, et al. Perit Dial Int 1989; 9: 341-7. Briefly, female rats weighing 200-400 g of the Spragle-Dawley strain were sacrificed pursuant to Royal Decree 1201/2005, of 10 Oct., on protection of animals used for experimental and other scientific purposes. […]
The RNA expression was evaluated by real-time RT-PCR in PMCs. […] RNA quality and concentration was evaluated by spectrophotometry (Infinite 200, Tecan, Salzburg, Austria) using 1 μl of the RNA sample. […] The dissociation curves were analysed to confirm the amplification of a single PCR product. […] In each experiment, the mean cycle threshold (CT) was calculated from triplicates for each of the genes studied, enabling comparison of the gene expression after different treatments (Methods 25, 402-408 (2001). In order to normalize the data, the gene expression of β-actin was used as endogenous control.

COCCCOc1cc(C[C@@H](C[C@H](N)[C@@H](O)C[C@H](C(=O)NCC(C)(C)C(N)=O)C(C)C)C(C)C)ccc1OC [aliskiren]
phosphorylation of protein p38 [1]: prevented | RNAm levels for collagen III [2]: lowered
